Test results published in patent US11939340B2, “CDK inhibitors and their use as pharmaceuticals” (Prelude Therapeutics Incorporated, priority 2022, dated 2024).

Columns and labels:
[1] = tested on: pRB in OVCAR3 cells; experiment: pRB ICW Assay in OVCAR3 Cells; assay type: cell-based; conditions: Homo sapiens, OVCAR-3, incubated with compound for 2 hours, read-out: OVCAR3 p-RB ICW IC50
Description: pRB ICW Assay in OVCAR3 Cells
OVCAR3 cells were maintained in RPMI (Corning, Catalog #: 10-040-CV) supplemented with 10% v/v FBS (Gibco, Catalog #: 26140-079), 1% v/v Penicillin Streptomycin (Gibco, Catalog #15140-122.) OVCAR3 cells grown at log phase were trypsinized, counted, and resuspended in fresh medium to reach a final density of 6.7e4 cells/mL and 75 μL of culture were dispensed into a 384-well plate (Falcon, cat #353962) using a Multidrop Combi dispenser (Thermo Scientific). The next day, compounds were dispensed as a 9-point, ½ log serial dilution using a Tecan digital dispenser (D300e), and cells were incubated with compound for 2 hours in a humidified incubator at 37° C. A reference compound at a final concentration of 10 μM was used as a control for maximum inhibition. Each compound was tested in duplicates for each experiment. At the end of the incubation, 25 μL of 16% paraformaldehyde (Electron Microscopy, cat #15710) was slowly added to each well and the plate was incubated at room temperature (RT) for 30 minutes to fix cells. Cells were then permeabilized by incubating with 50 μL/well of wash buffer (lx PBS with 0.1% Triton X-100) 5×5 minutes, followed by 1 hour blocking with 30 μL/well of Odyssey blocking buffer (Li—COR, cat #927-40000), at RT. Anti-phosphor RB antibody (Cell signaling 8516S) was diluted 1:1000 in Odyssey blocking buffer and 20 μL was added to all wells and incubated overnight in 4° C. with gently rocking. The next day, cells were washed 5×5 min with 50 μL/well of wash buffer, followed with 1 hour incubation with secondary antibody and DRAQ5 diluted in Odyssey blocking buffer (1:500 dilution for secondary antibody and 1:2000 dilution for DRAQ5), 5×5 min washes, and one last wash with water. Plates were dried in 37° C. oven for 5 minutes and scanned using Li—COR Odyssey CLx imaging system to acquire intensities at 700 and 800 nm channels.

[2] = target: CDK2/Cyclin E2 (Homo sapiens, UniProt P24941); experiment: CDK2/CyclinE2 Enzymatic Activity Assay (TR-FRET); assay type: biochemical; conditions: CDK2/CyclinE2 1 nM, ATP 1 mM, read-out: CDK2_El IC50
Description: CDK2/CyclinE2 Enzymatic Activity Assay
The inhibitory activity of compounds was evaluated in vitro using TR-FRET assay with white 384-well low volume microplate (Greiner Bio-One). CDK2/Cyclin E2 catalyzed phosphorylation of peptide in the presence and absence of compounds was measured and used in IC50 determination. Recombinant protein complex CDK2/Cyclin E2, expressed from insect cell, was purchased from ProQinase. Testing compounds were dissolved in DMSO at 1 mM and tested in 9-dose IC50 mode. The reaction mixture was prepared by mixing CDK2/CyclinE2 (1 nM final), ULight-4E-BP1 (50 nM final, Perkinelmer, TRF0128-D), and ATP (1 mM final) in assay buffer (20 mM of HEPES pH 7.4, 1 mM of EGTA, 0.05% BSA, 0.005% Tween 20, and 1 mM TCEP). The compound of interest in DMSO was added to each well in 3-fold serial dilution by dispenser (TECAN D300E) to make a 9.9 μL of reaction mixture. After 20 minutes preincubation at room temperature, 0.1 μL MgCl2 (10 mM final) was added to initiate the reaction. Following a 45 minute incubation at 37° C., the reaction was stopped by addition of 2 μL of quenching buffer consisting of Lance detection buffer (Perkinelmer CR97-100C), LANCE Ultra Europium-anti-P-4E-BP1 (Perkinelmer, TRF0216-D), EDTA, and incubate at room temperature for additional 60 minutes in the dark. The reaction signal was measured by Envision multimode plate reader (PerkinElmer, 2102-0010). IC50 values were determined by fitting the data to the standard 4 parameters with Hill Slope using GraphPad Prism software.

[3] = target: T1, CDK4/Cyclin D1 (Homo sapiens, UniProt P11802); experiment: CDK4/CyclinD1 Enzymatic Activity Assay (TR-FRET); assay type: biochemical; conditions: CDK4/CyclinD1 1 nM, ATP 2 mM, read-out: CDK4_D1 IC50
T1 construct: purchased ProQinase; host or cells: insect cell
T1 sequence (P11802 whole entry): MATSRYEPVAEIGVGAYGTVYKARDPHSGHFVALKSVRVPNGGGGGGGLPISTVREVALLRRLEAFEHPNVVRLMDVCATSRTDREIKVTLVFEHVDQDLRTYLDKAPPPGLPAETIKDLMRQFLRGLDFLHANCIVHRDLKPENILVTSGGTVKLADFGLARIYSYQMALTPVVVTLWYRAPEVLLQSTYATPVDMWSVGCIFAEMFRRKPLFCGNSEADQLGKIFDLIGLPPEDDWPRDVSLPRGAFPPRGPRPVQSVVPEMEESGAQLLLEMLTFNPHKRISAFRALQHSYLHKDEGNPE
T1 sequence (P24385 whole entry partner): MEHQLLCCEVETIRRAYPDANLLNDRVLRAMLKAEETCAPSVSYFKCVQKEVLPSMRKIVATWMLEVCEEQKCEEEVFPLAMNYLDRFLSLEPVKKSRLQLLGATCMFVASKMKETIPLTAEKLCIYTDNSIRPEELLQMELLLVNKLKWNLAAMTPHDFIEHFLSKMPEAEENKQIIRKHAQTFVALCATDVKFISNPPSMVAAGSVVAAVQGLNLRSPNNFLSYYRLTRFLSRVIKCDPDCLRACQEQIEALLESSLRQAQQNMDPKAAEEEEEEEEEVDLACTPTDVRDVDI
Description: CDK4/CyclinD1 Enzymatic Activity Assay
The inhibitory activity of compounds was evaluated in vitro using TR-FRET assay with white 384-well low volume microplate (Greiner Bio-One). CDK4/Cyclin D1 catalyzed phosphorylation of peptide in the presence and absence of compounds was measured and used in IC50 determination. Recombinant protein complex CDK4/Cyclin D1, expressed from insect cell, was purchased from ProQinase. Testing compounds were dissolved in DMSO at 1 mM and tested in 9-dose IC50 mode. The reaction mixture was prepared by mixing CDK4/CyclinD1 (1 nM final), ULight-4E-BP1 (100 nM final, Perkinelmer, TRF0128-D), and ATP (2 mM final) in assay buffer (20 mM of HEPES pH 7.4, 1 mM of EGTA, 0.05% BSA, 0.005% Tween 20, and 1 mM TCEP). The compound of interest in DMSO was added to each well in 3-fold serial dilution by the dispenser (TECAN D300E) to make a 9.9 μL of reaction mixture. After 20 minutes preincubation at room temperature, 0.1 μL MgCl2 (10 mM final) was added to initiate the reaction. Following a 45 minute incubation at 37° C., the reaction was stopped by addition of 2 μL of quenching buffer consisting of Lance detection buffer (Perkinelmer CR97-100C), LANCE Ultra Europium-anti-P-4E-BP1 (Perkinelmer, TRF0216-D), EDTA, and incubated at room temperature for additional 60 minutes in dark. The reaction signal was measured by Envision multimode plate reader (PerkinElmer, 2102-0010). IC50 values were determined by fitting the data to the standard 4 parameters with Hill Slope using GraphPad Prism software.

SMILES	IC50 [1]	IC50 [2]	IC50 [3]
CC12CCCN1C(=O)c1cc(-c3nc(NC4CCN(S(C)(=O)=O)CC4)ncc3C(F)(F)F)sc12 (stereo not shown) [Example 20, 8a-Methyl-2-(2-((1-(methylsulfonyl)piperidin-4-yl)amino)-5-(trifluoromethyl)pyrimidin-4-yl)-6,7,8,8a-tetrahydro-4H-thieno[2,3-a]pyrrolizin-4-one]	≤ 0.1 µM	≤ 0.1 µM	≤ 0.1 µM
CCC12CC(N(C)C)CN1C(=O)c1cc(-c3nc(NC4CCN(S(C)(=O)=O)CC4)ncc3C(F)(F)F)sc12 (stereo not shown) [Example 39, 7-(Dimethylamino)-8a-ethyl-2-(2-((1-(methylsulfonyl)piperidin-4-yl)amino)-5-(trifluoromethyl)pyrimidin-4-yl)-6,7,8,8a-tetrahydro-4H-thieno[2,3-a]pyrrolizin-4-one]	≤ 0.1 µM	≤ 0.1 µM	≤ 0.1 µM
CS(=O)(=O)N1CCC(Nc2ncc(C(F)(F)F)c(-c3cc4c(s3)C3(C5CC(F)(F)C5)CCCN3C4=O)n2)CC1 (stereo not shown) [Example 24, 8a-(3,3-Difluorocyclobutyl)-2-(2-((1-(methylsulfonyl)piperidin-4-yl)amino)-5-(trifluoromethyl)pyrimidin-4-yl)-6,7,8,8a-tetrahydro-4H-thieno[2,3-a]pyrrolizin-4-one]	0.1 to 0.5 µM	≤ 0.1 µM	≤ 0.1 µM
CCC12CCCN1C(=O)c1cc(-c3nc(NC4CCN(S(=O)(=O)c5cnn(C)c5)CC4)ncc3C(F)(F)F)sc12 (stereo not shown) [Example 37, 8a-Ethyl-2-(2-((1-((1-methyl-1H-pyrazol-4-yl)sulfonyl)piperidin-4-yl)amino)-5-(trifluoromethyl)pyrimidin-4-yl)-6,7,8,8a-tetrahydro-4H-thieno[2,3-a]pyrrolizin-4-one]	≤ 0.1 µM	≤ 0.1 µM	≤ 0.1 µM
CCC12CCCN1C(=O)c1cc(-c3nc(NC4CCN(S(C)(=O)=O)CC4)ncc3C(F)(F)F)sc12 (stereo not shown) [Example 14, 8a-Ethyl-2-[2-[(1-methylsulfonylpiperidin-4-yl)amino]-5-(trifluoromethyl)pyrimidin-4-yl]-7,8-dihydro-6H-thieno[2,3-a]pyrrolizin-4-one]	≤ 0.1 µM	≤ 0.1 µM	≤ 0.1 µM
[2H]C([2H])([2H])NC1CN2C(=O)c3cc(-c4nc(NC5CCN(S(C)(=O)=O)CC5)ncc4C(F)(F)F)sc3C2(CC)C1 (stereo not shown) [Example 42, 8a-Ethyl-7-((methyl-d3)amino)-2-(2-((1-(methylsulfonyl)piperidin-4-yl)amino)-5-(trifluoromethyl)pyrimidin-4-yl)-6,7,8,8a-tetrahydro-4H-thieno[2,3-a]pyrrolizin-4-one]	≤ 0.1 µM	≤ 0.1 µM	≤ 0.1 µM
CCC12CC(NC)CN1C(=O)c1cc(-c3nc(N[C@@H]4CCN(S(C)(=O)=O)C[C@H]4F)ncc3C(F)(F)F)sc12 (stereo partly drawn) [Example 47, 8a-Ethyl-2-(2-(((3R,4R)-3-fluoro-1-(methylsulfonyl)piperidin-4-yl)amino)-5-(trifluoromethyl)pyrimidin-4-yl)-7-(methylamino)-6,7,8,8a-tetrahydro-4H-thieno[2,3-a]pyrrolizin-4-one]	≤ 0.1 µM	≤ 0.1 µM	≤ 0.1 µM
CS(=O)(=O)N1CCC(Nc2ncc(C(F)(F)F)c(-c3cc4c(s3)C3(CCCO)CCCCN3C4=O)n2)CC1 (stereo not shown) [Example 4, 9a-(3-Hydroxypropyl)-2-(2-((1-(methylsulfonyl)piperidin-4-yl)amino)-5-(trifluoromethyl)pyrimidin-4-yl)-7,8,9,9a-tetrahydrothieno[2,3-a]indolizin-4(6H)-one]		≤ 0.1 µM	≤ 0.1 µM
CCC12CCCN1C(=O)c1cc(-c3ccnc(NC4CCN(S(C)(=O)=O)CC4)n3)sc12 (stereo not shown) [Example 28, 8a-Ethyl-2-(2-((1-(methylsulfonyl)piperidin-4-yl)amino)pyrimidin-4-yl)-6,7,8,8a-tetrahydro-4H-thieno[2,3-a]pyrrolizin-4-one]		0.1 to 0.5 µM	0.1 to 0.5 µM
CS(=O)(=O)N1CCC(Nc2ncc(C(F)(F)F)c(-c3cc4c(s3)C3CCCN3C4=O)n2)CC1 (stereo not shown) [Example 21, 2-(2-((1-(Methylsulfonyl)piperidin-4-yl)amino)-5-(trifluoromethyl)pyrimidin-4-yl)-6,7,8,8a-tetrahydro-4H-thieno[2,3-a]pyrrolizin-4-one]	0.1 to 0.5 µM	≤ 0.1 µM	≤ 0.1 µM
CCC12CC(F)(F)CN1C(=O)c1cc(-c3nc(NC4CCN(S(C)(=O)=O)CC4)ncc3C(F)(F)F)sc12 (stereo not shown) [Example 32, 8a-Ethyl-7,7-difluoro-2-(2-((1-(methylsulfonyl)piperidin-4-yl)amino)-5-(trifluoromethyl)pyrimidin-4-yl)-6,7,8,8a-tetrahydro-4H-thieno[2,3-a]pyrrolizin-4-one]	≤ 0.1 µM	≤ 0.1 µM	≤ 0.1 µM
CS(=O)(=O)N1CCC(Nc2ncc(C(F)(F)F)c(-c3cc4c(s3)C3(CCO)CCCCN3C4=O)n2)CC1 (stereo not shown) [Example 5, 9a-(2-Hydroxyethyl)-2-(2-((1-(methylsulfonyl)piperidin-4-yl)amino)-5-(trifluoromethyl)pyrimidin-4-yl)-7,8,9,9a-tetrahydrothieno[2,3-a]indolizin-4(6H)-one]		≤ 0.1 µM	≤ 0.1 µM
CCC12CC(NC)CN1C(=O)c1cc(-c3nc(N[C@H]4CCN(S(=O)(=O)c5cnn(C)c5)C[C@H]4C)ncc3C(F)(F)F)sc12 (stereo partly drawn) [Example 44, 8a-Ethyl-2-(2-(((3R,4S)-3-methyl-1-((1-methyl-1H-pyrazol-4-yl)sulfonyl)piperidin-4-yl)amino)-5-(trifluoromethyl)pyrimidin-4-yl)-7-(methylamino)-6,7,8,8a-tetrahydro-4H-thieno[2,3-a]pyrrolizin-4-one]	≤ 0.1 µM	≤ 0.1 µM	≤ 0.1 µM
CC(C)C12CCCCN1C(=O)c1cc(-c3nc(NC4CCN(S(C)(=O)=O)CC4)ncc3F)sc12 (stereo not shown) [Example 9, 2-(5-Fluoro-2-((1-(methylsulfonyl)piperidin-4-yl)amino)pyrimidin-4-yl)-9a-isopropyl-7,8,9,9a-tetrahydrothieno[2,3-a]indolizin-4(6H)-one]		≤ 0.1 µM	
